{"source": "patent US11618810B2", "about": "“Antiviral articles” (priority 2020, dated 2023)", "key": {"IAV NA segment": {"system": "IAV NA segment", "assay": "RT-qPCR of viral RNA (NA segment)", "details": "for viral RNA integrity (RT-qPCR): after treatment"}, "[1]": {"system": "SARS-CoV-2 S and N protein", "assay": "Western blot of SARS-CoV-2 S and N protein levels", "details": "SARS-CoV-2, after exposure", "procedure": "FIG. 3C is a Western blot analysis of IAV HA and NP protein levels after exposure of IAV to the fabric of Example 3-A and comparative example A. Both the virus that was removed (eluate) from each fabric with PBSTE as well as the virus that remained on each fabric was analyzed and reported in FIG. 3D. Similarly, a Western blot analysis of SARS-CoV-2 S and N protein levels after exposure of virus to the Example 3-A and comparative example A as shown in FIG. 3E. Both the virus that was removed (eluate) from each fabric with PBSTE as well as the virus that remained on each fabric were analyzed and reported in FIG. 3F.\nThere was no effect on the viral nucleoprotein, which allowed use of the viral nucleoprotein as internal control. A similar altered surface protein to nucleoprotein ratio on the zinc-embedded PA66 fabrics was observed."}, "IAV HA and NP protein": {"system": "IAV HA and NP protein", "assay": "Western blot of IAV HA and NP protein levels", "details": "for stability of virus surface protein HA: IAV, after exposure"}, "[2]": {"details": "IAV in the presence of zinc chloride"}}}
{"smiles": "[Cu+2]", "note": "[copper ions]", "values": [{"measurement": "viral RNA integrity (RT-qPCR)", "setting": "IAV NA segment", "value": "no significant reduction"}, {"measurement": "stability of virus surface protein S", "setting": "[1]", "value": "aberrant migration"}, {"measurement": "stability of virus surface protein HA", "setting": "IAV HA and NP protein", "value": "aberrant migration"}]}
{"smiles": "[Cl-].[Cl-].[Zn+2]", "note": "[zinc chloride]", "values": [{"measurement": "viral NA segment levels (RT-qPCR)", "setting": "IAV NA segment; IAV after zinc chloride and EDTA neutralization", "value": "No effect"}, {"measurement": "viral RNA integrity (RT-qPCR)", "setting": "IAV NA segment", "value": "no significant reduction"}, {"measurement": "cytotoxic effects in tissue culture", "setting": "MDCK cells", "value": "cytotoxic"}, {"measurement": "reduction on the IAV titer", "setting": "IAV (H1N1); 60 min incubation, varying concentrations, stopped with equimolar EDTA", "value": "approximately 2 log"}, {"measurement": "stability of virus surface protein S", "setting": "[1]", "value": "reduced stability"}, {"measurement": "HA levels (western blot)", "setting": "IAV HA and NP protein; [2]", "value": "reduced in a concentration-dependent manner"}, {"measurement": "NP levels (western blot)", "setting": "IAV HA and NP protein; [2]", "value": "did not diminish"}, {"measurement": "stability of virus surface protein HA", "setting": "IAV HA and NP protein", "value": "reduced stability"}]}
{"smiles": "O=C(O)CN(CCN(CC(=O)O)CC(=O)O)CC(=O)O", "note": "[EDTA]", "values": [{"measurement": "effect on viral titer", "setting": "IAV (H1N1); EDTA alone", "value": "does not have any cytotoxic effects itself or reduce the viral titer"}]}
